A short description of the series: Aqueous solubility / Biopharmaceutical Classification System classification. The class given is physicochemical. The source says:
2-[2-(nitrooxy)ethoxy]ethyl {2-[(2,6-dichlorophenyl)amino]phenyl}acetate is a lipophilic drug with poor aqueous solubility and a low melting point. Said drug can be classified into class 2 according to the Biopharmaceutical Classification System proposed by Amidon et al. (Pharm. Res. 12 (1995) pp. 413420). Compounds of this class are characterised by their low aqueous solubility but reasonably well permeability. A biopharmaceutical problem with these drugs is that their absorption from the gastro-intestinal tract (GIT) may be dissolution rate limited, resulting in poor bioavailibility upon oral administration. One object of the invention is to provide an oral drug delivery composition with satisfactory bioavailability.

As to `O=C(Cc1ccccc1Nc1c(Cl)cccc1Cl)OCCOCCO[N+](=O)[O-]` [2-[2-(nitrooxy)ethoxy]ethyl {2-[(2,6-dichlorophenyl)amino]phenyl}acetate], the aqueous solubility entry (qualitative statement) was “poor”. Besides, the “class according to the Biopharmaceutical Classification System” value (system proposed by Amidon et al.) was “class 2”.

Source of the values: US20060141044A1, “Pharmaceutical compositions based on diclofenac derivate” (priority 2003, published 2006).
